This note sets out measurements from ChEMBL document CHEMBL2086371, “4-quinolones as noncovalent inhibitors of high molecular mass penicillin-binding proteins” (ACS Med Chem Lett, 2012).

Assay [1] is described as follows: Inhibition of bocillin FL binding to PBP 1a/1b in Escherichia coli MM 294 membrane preparation by gel electrophoresis. Format: cell membranes.
Assay [2] can be described thus: Inhibition of bocillin FL binding to PBP 2 in Escherichia coli MM 294 membrane preparation by gel electrophoresis. Format: cell membranes.
The subject of assay [3] is Escherichia coli. The experiment in a line: Inhibition of bocillin FL binding to PBP 3 in Escherichia coli MM 294 membrane preparation at 1 mM by gel electrophoresis. It counts as cell membranes.
The nature of assay [4]: Inhibition of bocillin FL binding to PBP 4 in Escherichia coli MM 294 membrane preparation by gel electrophoresis. It counts as cell membranes.
The test system of assay [5] is Escherichia coli. The experiment in a line: Inhibition of bocillin FL binding to PBP 5/6 in Escherichia coli MM 294 membrane preparation at 1 mM by gel electrophoresis. Format: cell membranes.
Assay [6] relates to Escherichia coli. The assay is described as follows: Antibacterial activity against Escherichia coli MM 294 after 20 hrs by tube dilution method. Format: functional. As to conditions: MM 294, 20 h.
For assay [7], the system named is Escherichia coli. The assay is described as follows: Inhibition of bocillin FL binding to Escherichia coli MM 294 PBP by whole-cell assay.
Assay [8] deals with Bacillus subtilis. The experiment in a line: Inhibition of bocillin FL binding to Bacillus subtilis PBP1 at 1 mM by gel electrophoresis.
The subject of assay [9] is Bacillus subtilis. The experiment in a line: Inhibition of bocillin FL binding to Bacillus subtilis PBP2 at 1 mM by gel electrophoresis.
The test system of assay [10] is Bacillus subtilis. The experiment in a line: Inhibition of bocillin FL binding to Bacillus subtilis PBP3/4 at 1 mM by gel electrophoresis.
Assay [11] relates to Bacillus subtilis. The experiment in a line: Inhibition of bocillin FL binding to Bacillus subtilis PBP5 at 1 mM by gel electrophoresis.
The test system of assay [12] is Bacillus subtilis. The experiment in a line: Antibacterial activity against Bacillus subtilis after 20 hrs by tube dilution method. It counts as functional, organism-based.
In assay [13] the test system is Escherichia coli. The assay is described as follows: Inhibition of bocillin FL binding to PBP 1a/1b in Escherichia coli MM 294 membrane preparation at 1 mM by gel electrophoresis. It counts as cell membranes.
Assay [14] concerns Escherichia coli. The experiment in a line: Inhibition of bocillin FL binding to PBP 2 in Escherichia coli MM 294 membrane preparation at 1 mM by gel electrophoresis. Format: cell membranes.
Assay [15] deals with Escherichia coli. The experiment in a line: Inhibition of bocillin FL binding to PBP 4 in Escherichia coli MM 294 membrane preparation at 1 mM by gel electrophoresis. Format: cell membranes.
The nature of assay [16]: Inhibition of bocillin FL binding to PBP 3 in Escherichia coli MM 294 membrane preparation by gel electrophoresis. It counts as cell membranes.
A short description of assay [17]: Inhibition of bocillin FL binding to PBP 5/6 in Escherichia coli MM 294 membrane preparation by gel electrophoresis. Format: cell membranes.
The nature of assay [18]: Inhibition of bocillin FL binding to Escherichia coli MM 294 PBP2 by cell-free assay.
Assay [19] has as its system Escherichia coli. The assay is described as follows: Inhibition of bocillin FL binding to Escherichia coli MM 294 PBP 5/6 by cell-free assay.

Active and inactive are the calls of the source. The calls are words filed in the database; no cut-off is given here.

As usually defined, the Ki is the dissociation constant of the complex between target and ligand, obtained from inhibition or displacement. The MIC is the least concentration at which growth counts as inhibited. High values mean weaker potency, low ones greater potency.

On to `O=C(O)Cc1c[nH]c2ccccc2c1=O`, for which the results for the inhibition constant (Ki) in assay [1], in [2] and in assay [4] were 300 µM, 250 µM and 29 µM, respectively. The inhibition entry in the assay on Escherichia coli [3], in the assay on Escherichia coli [5] and in the assay on Escherichia coli [7] was “inactive” throughout. The molecule further returned an MIC in the assay on Escherichia coli [6] of over 1000 µM. The inhibition result in the assay with Bacillus subtilis [8], with Bacillus subtilis [9], with Bacillus subtilis [10] and with Bacillus subtilis [11] was “Active” in each case. In addition, the result with Bacillus subtilis [12] was inactive.

Consider `Oc1cccc2nccc(O)c12`, for which the inhibition entry in the assay on Escherichia coli [13], in the assay on Escherichia coli [14], in the assay on Escherichia coli [3], in the assay on Escherichia coli [15], in the assay with Escherichia coli [5] and in the assay on Escherichia coli [7] was “inactive” in each case. The molecule further gave a minimal inhibitory concentration (MIC) against Escherichia coli [6] of over 1000 µM. Moreover, the inhibition entry in the assay with Bacillus subtilis [8], in the assay with Bacillus subtilis [9], with Bacillus subtilis [10] and in the assay with Bacillus subtilis [11] was “Active” in each case. Also, the outcome in the assay on Bacillus subtilis [12] was inactive.

Consider `O=c1cc[nH]c2cc(O)ccc12`, for which the Ki in assay [1] is 510 µM; in assay [2] it was 89 µM; in assay [4] it was 55 µM. For the same molecule, the inhibition entry with Escherichia coli [3], in the assay with Escherichia coli [5] and in the assay on Escherichia coli [7] was “inactive” throughout. For the same molecule, the MIC with Escherichia coli [6] is over 1000 µM. Besides, the inhibition entry with Bacillus subtilis [8], in the assay with Bacillus subtilis [9], in the assay on Bacillus subtilis [10] and in the assay with Bacillus subtilis [11] was “Active” throughout. In addition, the outcome in the assay with Bacillus subtilis [12] was inactive.

For `O=c1cc(CO)[nH]c2ccccc12`, the Ki turned out to be 27 µM in assay [1]; 26 µM in assay [2]; 27 µM in [16]; 4.8 µM in assay [4]; 220 µM in assay [17]; 64 µM in assay [18]. In addition, the inhibition entry in the assay on Escherichia coli [19] and with Escherichia coli [7] was “inactive” in each case. Besides, the MIC with Escherichia coli [6] is over 1000 µM. Further, the inhibition entry in the assay with Bacillus subtilis [8], in the assay with Bacillus subtilis [9], with Bacillus subtilis [10] and in the assay on Bacillus subtilis [11] was “Active” throughout. In addition, the outcome in the assay with Bacillus subtilis [12] was inactive.

With `Oc1ccnc2ccccc12`, the inhibition result in the assay on Escherichia coli [13], in the assay on Escherichia coli [14], in the assay on Escherichia coli [3], in the assay on Escherichia coli [15] and in the assay with Escherichia coli [5] was “inactive” throughout.

For the molecule `O=C(O)c1cc(=O)c2ccccc2[nH]1` [TRANSTORINE], the Ki in [1] is 470 µM; in assay [2] it was 210 µM; in assay [16], 950 µM; in [4], 37 µM. The inhibition result in the assay with Escherichia coli [5] and with Escherichia coli [7] was “inactive” throughout. Moreover, the MIC in the assay with Escherichia coli [6] is over 1000 µM. The inhibition result in the assay with Bacillus subtilis [8], in the assay with Bacillus subtilis [9], in the assay on Bacillus subtilis [10] and in the assay with Bacillus subtilis [11] was “Active” throughout. Moreover, in the assay with Bacillus subtilis [12], the result was inactive.

On to `O=c1c(CCO)c[nH]c2ccccc12`, for which the Ki in [1] was 38 µM; in assay [2], 27 µM; in [16] it was 70 µM; in assay [4], 3.1 µM. For the same molecule, the inhibition entry in the assay with Escherichia coli [5] and in the assay with Escherichia coli [7] was “inactive” throughout. The MIC against Escherichia coli [6] is over 1000 µM. Besides, the inhibition entry with Bacillus subtilis [8], in the assay with Bacillus subtilis [9], in the assay with Bacillus subtilis [10] and with Bacillus subtilis [11] was “Active” in each case. The result with Bacillus subtilis [12] was inactive.

For `O=c1cc(CCCO)[nH]c2ccccc12`, the Ki in assay [1] came to 49 µM; in [2], 50 µM; in [16], 120 µM; in assay [4], 6.1 µM. Also, the inhibition result with Escherichia coli [5] and with Escherichia coli [7] was “inactive” in each case. The same molecule displayed an MIC with Escherichia coli [6] of over 1000 µM. Moreover, the inhibition entry with Bacillus subtilis [8], in the assay on Bacillus subtilis [9], in the assay with Bacillus subtilis [10] and in the assay on Bacillus subtilis [11] was “Active” throughout. Also, the result in the assay on Bacillus subtilis [12] was inactive.

Consider `O=c1cc(CCO)[nH]c2ccccc12`, for which the Ki came to 37 µM in assay [1]; 26 µM in assay [2]; 120 µM in assay [16]; 7 µM in assay [4]; 520 µM in assay [17]. This molecule had an MIC against Escherichia coli [6] of over 1000 µM. Also, in the assay with Escherichia coli [7], the inhibition entry was “inactive”. Also, the inhibition entry with Bacillus subtilis [8], in the assay on Bacillus subtilis [9], with Bacillus subtilis [10] and in the assay with Bacillus subtilis [11] was “Active” each time. Also, in the assay on Bacillus subtilis [12], the outcome was inactive.
